pEC50, pIC50, pKi: −log10 of the molar value. In brackets after ≈: the same amount, converted by molar mass.
Tests used:
[1] = Microsomal stability in human plasma assessed as half life; type: ADME, cell-free
[2] = target: Voltage-gated inwardly rectifying potassium channel KCNH2 (Homo sapiens, UniProt Q12809); assay: Inhibition of human ERG; type: toxicity
[3] = target: CYP2C19 (Homo sapiens, UniProt P33261); assay: (§1) Inhibition of CYP2C19 (unknown origin); type: ADME
[4] = Apparent permeability across apical to basolateral side in human Caco-2 cells; type: ADME, cell-based
[5] = target: CYP2D6 (Homo sapiens, UniProt P10635); assay: (§2) Inhibition of CYP2D6 (unknown origin); type: ADME
Sequence of CYP2D6 (P10635 whole entry): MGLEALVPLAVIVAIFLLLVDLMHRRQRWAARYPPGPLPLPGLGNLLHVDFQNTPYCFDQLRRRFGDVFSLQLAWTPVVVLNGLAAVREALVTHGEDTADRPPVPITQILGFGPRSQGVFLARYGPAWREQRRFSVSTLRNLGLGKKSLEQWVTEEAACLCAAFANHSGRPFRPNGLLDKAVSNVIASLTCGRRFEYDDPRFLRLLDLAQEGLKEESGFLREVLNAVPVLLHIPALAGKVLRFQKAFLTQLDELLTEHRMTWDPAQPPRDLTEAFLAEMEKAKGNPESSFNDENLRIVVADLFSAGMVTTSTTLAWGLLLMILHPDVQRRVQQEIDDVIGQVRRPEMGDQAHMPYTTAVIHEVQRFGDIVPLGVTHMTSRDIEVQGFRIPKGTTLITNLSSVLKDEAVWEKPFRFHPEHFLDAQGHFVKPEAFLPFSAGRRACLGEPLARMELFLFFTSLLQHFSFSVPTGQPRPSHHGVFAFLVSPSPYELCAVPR

[6] = Half life in Wistar rat at 0.5 mg/kg, iv; type: ADME, organism-based; conditions: in vivo
[7] = Microsomal stability in mouse plasma assessed as half life; type: ADME, cell-free
[8] = Aqueous solubility of compound at pH 7.4; type: physicochemical
[9] = Microsomal stability in Wistar rat plasma assessed as half life; type: ADME, cell-free
[10] = target: T1, Adenosine receptor A3 (Homo sapiens, UniProt P0DMS8); assay: Agonist activity at human adenosine A3A receptor stably expressed in HEK293 cells assessed as mini G-alpha recruitment potency by luciferase based NanoBiT assay; type: functional, cell-based
T1 sequence (P0DMS8 whole entry): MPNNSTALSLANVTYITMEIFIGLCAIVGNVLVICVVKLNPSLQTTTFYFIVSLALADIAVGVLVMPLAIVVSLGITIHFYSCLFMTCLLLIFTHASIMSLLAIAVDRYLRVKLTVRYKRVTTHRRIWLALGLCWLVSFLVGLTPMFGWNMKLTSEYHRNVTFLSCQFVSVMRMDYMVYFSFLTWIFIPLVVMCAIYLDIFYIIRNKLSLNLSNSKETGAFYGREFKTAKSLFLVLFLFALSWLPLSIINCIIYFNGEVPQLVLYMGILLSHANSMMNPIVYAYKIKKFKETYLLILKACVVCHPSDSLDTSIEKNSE

[11] = target: T2, Adenosine receptor A1 (Homo sapiens) (UniProt P30542); assay: Binding affinity to human adenosine A1A receptor expressed in human HEK293 cell membrane at 10 uM by radioligand inhibition assay; type: cell membranes
T2 sequence (whole entry): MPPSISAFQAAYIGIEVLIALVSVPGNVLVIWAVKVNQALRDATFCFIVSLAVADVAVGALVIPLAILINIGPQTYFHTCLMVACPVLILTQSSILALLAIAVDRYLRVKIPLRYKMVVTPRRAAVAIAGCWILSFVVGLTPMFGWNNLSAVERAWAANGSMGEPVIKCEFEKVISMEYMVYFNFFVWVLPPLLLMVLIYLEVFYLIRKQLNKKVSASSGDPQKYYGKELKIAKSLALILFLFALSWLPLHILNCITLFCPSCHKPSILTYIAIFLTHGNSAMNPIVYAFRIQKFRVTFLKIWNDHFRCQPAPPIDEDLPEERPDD

[12] = target: T1, Adenosine receptor A3; assay: Displacement of [125I] N6-(4-amino-3-iodobenzyl)adenosine-5'-N-methyluronamide from human A3A receptor stably expressed in HEK293 cell membrane by radioligand inhibition assay; type: cell membranes
[13] = target: T3, Adenosine receptor A2a (Homo sapiens, UniProt P29274); assay: Displacement of [3H]-2-p-2-(carboxyethyl)phenyl-ethylamino-5'-N-ethylcarboxamidoadenosine from human A2A receptor stably expressed in HEK293 cell membrane by radioligand inhibition assay; type: cell membranes
T3 sequence (P29274 whole entry): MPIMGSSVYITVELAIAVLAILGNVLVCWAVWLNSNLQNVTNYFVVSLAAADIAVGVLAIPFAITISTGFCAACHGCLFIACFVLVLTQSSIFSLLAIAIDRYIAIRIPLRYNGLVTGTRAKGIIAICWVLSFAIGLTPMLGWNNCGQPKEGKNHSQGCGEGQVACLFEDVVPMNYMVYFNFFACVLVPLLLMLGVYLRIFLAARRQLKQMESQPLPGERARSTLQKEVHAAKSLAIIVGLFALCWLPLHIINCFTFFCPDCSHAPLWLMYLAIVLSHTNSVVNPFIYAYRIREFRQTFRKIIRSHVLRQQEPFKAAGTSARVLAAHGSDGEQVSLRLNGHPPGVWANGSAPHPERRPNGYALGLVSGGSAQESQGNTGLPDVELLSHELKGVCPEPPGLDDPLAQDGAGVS

[14] = target: T4, Adenosine receptor A3 (Mus musculus, UniProt Q61618); assay: Displacement of [125I] N6-4-amino-3-iodobenzyl adenosine 5-N-methyluronamide from mouse A3A receptor stably expressed in HEK293 cell membrane by radioligand inhibition assay; type: cell membranes
T4 sequence (Q61618 whole entry): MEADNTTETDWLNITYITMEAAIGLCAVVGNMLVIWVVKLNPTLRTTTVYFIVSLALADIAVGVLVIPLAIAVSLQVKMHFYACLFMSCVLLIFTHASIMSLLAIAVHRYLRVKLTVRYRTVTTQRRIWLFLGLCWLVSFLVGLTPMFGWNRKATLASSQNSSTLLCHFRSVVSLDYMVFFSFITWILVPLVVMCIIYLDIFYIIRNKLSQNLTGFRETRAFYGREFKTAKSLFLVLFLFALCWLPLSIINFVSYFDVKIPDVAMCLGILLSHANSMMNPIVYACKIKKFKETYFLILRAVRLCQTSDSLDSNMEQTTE

[15] = target: T1, Adenosine receptor A3; assay: Agonist activity at human adenosine A3A receptor stably expressed in HEK293 cells assessed as beta arrestin 2 recruitment potency by luciferase based NanoBiT assay; type: functional, cell-based
[16] = target: T5, Adenosine receptor A1 (Homo sapiens, UniProt P30542); assay: Displacement of [3H] N6-R-phenylisopropyladenosine from human A1A receptor stably expressed in HEK293 cell membrane by radioligand inhibition assay; type: cell membranes
T5 sequence (P30542 whole entry): T2 sequence (whole entry)

[17] = target: T3, Adenosine receptor A2a; assay: Binding affinity to human adenosine A2A receptor expressed in human HEK293 cell membrane at 10 uM by radioligand inhibition assay; type: cell membranes
[18] = target: T6, Adenosine receptor A1 (Mus musculus, UniProt Q60612); assay: Displacement of [3H] N6-R-phenylisopropyladenosine from mouse A1A receptor stably expressed in HEK293 cell membrane by radioligand inhibition assay; type: cell membranes
T6 sequence (Q60612 whole entry): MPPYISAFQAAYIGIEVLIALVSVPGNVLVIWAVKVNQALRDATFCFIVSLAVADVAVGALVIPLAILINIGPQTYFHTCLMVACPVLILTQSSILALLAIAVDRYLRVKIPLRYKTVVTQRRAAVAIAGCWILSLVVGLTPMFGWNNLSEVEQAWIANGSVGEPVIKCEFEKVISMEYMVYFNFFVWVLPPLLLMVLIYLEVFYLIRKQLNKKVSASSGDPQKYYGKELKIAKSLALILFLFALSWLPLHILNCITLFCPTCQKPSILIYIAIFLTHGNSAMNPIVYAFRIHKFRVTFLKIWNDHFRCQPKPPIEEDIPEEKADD

[19] = Stability of the compound in simulated gastric fluid assessed as parent compound remaining at 120 mins; type: ADME; conditions: simulated gi fluid, 2 h
[20] = target: Cytochrome P450 2C9 (Homo sapiens, UniProt P11712); assay: Inhibition of CYP2C9 (unknown origin); type: ADME
Sequence of Cytochrome P450 2C9 (P11712 whole entry): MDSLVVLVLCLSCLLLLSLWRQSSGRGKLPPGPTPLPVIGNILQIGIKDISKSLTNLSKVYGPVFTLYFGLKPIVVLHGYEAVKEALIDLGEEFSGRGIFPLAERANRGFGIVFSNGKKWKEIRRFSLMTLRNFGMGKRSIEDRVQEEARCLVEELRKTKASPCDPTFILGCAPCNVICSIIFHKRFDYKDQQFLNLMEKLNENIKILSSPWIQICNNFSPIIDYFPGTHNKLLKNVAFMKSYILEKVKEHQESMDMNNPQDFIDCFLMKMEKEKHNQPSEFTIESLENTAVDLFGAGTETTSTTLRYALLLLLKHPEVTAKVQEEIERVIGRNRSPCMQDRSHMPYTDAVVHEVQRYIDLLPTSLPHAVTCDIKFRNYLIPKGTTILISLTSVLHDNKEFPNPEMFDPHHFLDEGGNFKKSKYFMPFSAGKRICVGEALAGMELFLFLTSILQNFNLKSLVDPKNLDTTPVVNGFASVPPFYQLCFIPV

[21] = target: Cytochrome P450 2C19 (Homo sapiens, UniProt P33261); assay: as §1; type: ADME
Sequence of Cytochrome P450 2C19 (P33261 whole entry): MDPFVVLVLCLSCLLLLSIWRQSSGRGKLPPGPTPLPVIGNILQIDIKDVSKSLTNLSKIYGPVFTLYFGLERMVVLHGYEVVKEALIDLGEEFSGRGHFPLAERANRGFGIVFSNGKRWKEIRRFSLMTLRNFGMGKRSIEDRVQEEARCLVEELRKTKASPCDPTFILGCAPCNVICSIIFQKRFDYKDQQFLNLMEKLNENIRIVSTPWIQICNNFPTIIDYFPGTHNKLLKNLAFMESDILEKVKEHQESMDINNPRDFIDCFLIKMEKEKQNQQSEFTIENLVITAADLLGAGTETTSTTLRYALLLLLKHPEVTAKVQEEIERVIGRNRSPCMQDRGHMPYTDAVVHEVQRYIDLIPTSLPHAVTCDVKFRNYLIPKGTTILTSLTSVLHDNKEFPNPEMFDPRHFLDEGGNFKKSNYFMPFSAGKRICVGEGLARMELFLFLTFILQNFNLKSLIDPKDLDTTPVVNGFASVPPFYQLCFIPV

[22] = Stability of the compound in simulated intestinal fluid assessed as parent compound remaining at 120 mins; type: ADME; conditions: simulated gi fluid, 2 h
[23] = Stability in mouse plasma assessed as parent compound remaining measured after 120 mins; type: ADME, cell-free; conditions: 2 h
[24] = target: T7, Cytochrome P450 1A2 (Homo sapiens, UniProt P05177); assay: Inhibition of CYP1A2 (unknown origin); type: ADME
T7 sequence (P05177 whole entry): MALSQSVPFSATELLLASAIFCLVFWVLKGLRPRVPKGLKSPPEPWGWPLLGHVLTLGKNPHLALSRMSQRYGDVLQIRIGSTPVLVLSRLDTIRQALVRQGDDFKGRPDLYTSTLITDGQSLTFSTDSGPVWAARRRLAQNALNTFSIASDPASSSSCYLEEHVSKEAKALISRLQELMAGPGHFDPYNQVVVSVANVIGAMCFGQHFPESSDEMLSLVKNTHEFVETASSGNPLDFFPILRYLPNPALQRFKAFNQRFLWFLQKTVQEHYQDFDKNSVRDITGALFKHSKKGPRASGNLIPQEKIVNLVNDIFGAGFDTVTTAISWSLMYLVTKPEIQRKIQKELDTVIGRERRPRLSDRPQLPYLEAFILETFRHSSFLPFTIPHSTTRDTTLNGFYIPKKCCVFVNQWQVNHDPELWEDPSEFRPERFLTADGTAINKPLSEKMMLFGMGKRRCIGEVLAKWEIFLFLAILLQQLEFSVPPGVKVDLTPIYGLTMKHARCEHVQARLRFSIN

[25] = Oral bioavailability in Wistar rat at 3 mg/kg; type: ADME, organism-based; conditions: in vivo
[26] = target: Cytochrome P450 2D6 (Homo sapiens, UniProt P10635); assay: as §2; type: ADME
Sequence of Cytochrome P450 2D6 (P10635 whole entry): as the sequence (P10635 whole entry) above

[27] = Stability in Wistar rat plasma assessed as parent compound remaining measured after 120 mins; type: ADME, cell-free; conditions: 2 h
[28] = target: Cytochrome P450 3A4 (Homo sapiens, UniProt P08684); assay: Inhibition of CYP3A4 (unknown origin); type: ADME
Sequence of Cytochrome P450 3A4 (P08684 whole entry): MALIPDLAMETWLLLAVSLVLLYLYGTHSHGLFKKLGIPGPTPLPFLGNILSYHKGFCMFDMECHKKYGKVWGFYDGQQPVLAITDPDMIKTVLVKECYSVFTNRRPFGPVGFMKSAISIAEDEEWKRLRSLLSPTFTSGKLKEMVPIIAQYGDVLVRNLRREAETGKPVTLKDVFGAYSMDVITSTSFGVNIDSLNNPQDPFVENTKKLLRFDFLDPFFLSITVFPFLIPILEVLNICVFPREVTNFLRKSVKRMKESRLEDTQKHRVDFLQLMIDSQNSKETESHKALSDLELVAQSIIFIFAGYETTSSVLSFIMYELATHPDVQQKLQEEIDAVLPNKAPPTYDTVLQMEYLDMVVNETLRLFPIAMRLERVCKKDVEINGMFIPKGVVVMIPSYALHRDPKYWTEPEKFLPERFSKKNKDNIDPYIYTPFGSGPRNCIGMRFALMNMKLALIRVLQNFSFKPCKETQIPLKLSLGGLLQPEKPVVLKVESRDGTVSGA

[29] = Stability in human plasma assessed as parent compound remaining measured after 120 mins; type: ADME, cell-free; conditions: 2 h
[30] = Oral bioavailability in Wistar rat at 10 mg/kg; type: ADME, organism-based; conditions: in vivo
[31] = Efflux ratio of permeability in human Caco2 cells; type: ADME, cell-based; conditions: caco-2

Sequence of Voltage-gated inwardly rectifying potassium channel KCNH2 (Q12809 whole entry): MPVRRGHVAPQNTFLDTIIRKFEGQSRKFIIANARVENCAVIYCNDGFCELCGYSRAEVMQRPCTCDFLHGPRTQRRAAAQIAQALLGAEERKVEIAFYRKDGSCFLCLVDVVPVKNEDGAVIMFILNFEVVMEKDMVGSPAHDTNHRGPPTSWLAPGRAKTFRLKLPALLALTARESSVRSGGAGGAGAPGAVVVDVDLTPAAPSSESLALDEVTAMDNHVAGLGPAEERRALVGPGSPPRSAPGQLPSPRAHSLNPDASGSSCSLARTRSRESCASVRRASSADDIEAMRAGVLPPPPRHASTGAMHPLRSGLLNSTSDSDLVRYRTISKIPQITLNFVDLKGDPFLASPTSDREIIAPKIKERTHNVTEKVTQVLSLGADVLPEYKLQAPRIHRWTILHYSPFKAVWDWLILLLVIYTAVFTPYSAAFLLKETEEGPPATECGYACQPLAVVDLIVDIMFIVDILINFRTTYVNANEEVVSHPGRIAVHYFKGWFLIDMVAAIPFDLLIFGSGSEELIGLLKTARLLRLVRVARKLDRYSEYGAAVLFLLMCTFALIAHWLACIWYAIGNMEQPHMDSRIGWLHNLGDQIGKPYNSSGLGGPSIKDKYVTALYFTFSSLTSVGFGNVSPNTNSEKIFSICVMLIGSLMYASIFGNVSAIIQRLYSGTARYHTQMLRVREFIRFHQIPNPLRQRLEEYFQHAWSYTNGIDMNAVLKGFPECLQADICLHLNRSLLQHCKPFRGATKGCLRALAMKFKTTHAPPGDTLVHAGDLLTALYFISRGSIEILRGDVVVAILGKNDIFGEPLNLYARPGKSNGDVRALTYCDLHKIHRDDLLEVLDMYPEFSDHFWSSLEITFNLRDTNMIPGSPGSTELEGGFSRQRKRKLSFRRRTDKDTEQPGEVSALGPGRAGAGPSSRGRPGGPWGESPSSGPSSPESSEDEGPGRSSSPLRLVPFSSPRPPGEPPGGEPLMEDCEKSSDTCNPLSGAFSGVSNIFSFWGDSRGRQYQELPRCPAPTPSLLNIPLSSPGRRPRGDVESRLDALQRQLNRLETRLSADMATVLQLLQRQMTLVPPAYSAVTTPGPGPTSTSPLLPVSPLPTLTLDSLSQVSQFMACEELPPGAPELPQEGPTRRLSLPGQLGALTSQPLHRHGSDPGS
Sequence of CYP2C19 (P33261 whole entry): as the sequence (P33261 whole entry) above

| SMILES | half-life [1] [min] | pIC50 [2] | half-life [6] [min] | half-life [7] [min] | half-life [9] [min] | inhibition [11] [%] | pKi [12] | pKi [13] | pKi [14] | inhibition [17] [%] | pKi [18] | Stability [19] [%] | pIC50 [20] | pIC50 [21] | Stability [22] [%] | Stability [23] [%] | pIC50 [24] | pIC50 [26] | Stability [27] [%] | solubility ([8]; buffer) [µg/mL] | further results |
| --- | --- | --- | --- | --- | --- | --- | --- | --- | --- | --- | --- | --- | --- | --- | --- | --- | --- | --- | --- | --- | --- |
| COc1cc(CCNc2nc(C#Cc3ccccc3)nc3c2ncn3[C@H]2[C@H](O)[C@H](O)[C@@H]3C[C@@H]32)ccc1O | 16.3 | 5.27 | 16.4 | 7.92 | 15.7 | – | – | – | – | – | – | – | – | – | – | – | – | – | – | – | pIC50 [3]: < 4.52; Papp A→B [4]: 2.71 ×10⁻⁶ cm/s; pIC50 [5]: < 4.52; solubility ([8]; aqueous, read-out: solubility): 13 µg/mL (≈ 26.1 µM) |
| CNC(=O)[C@@]12C[C@@H]1[C@@H](n1cnc3c(NCCc4ccc(OC)c(O)c4)nc(OC)nc31)[C@H](O)[C@@H]2O | – | – | – | – | – | 59 | 8.41 | 4.99 | 8.27 | – | – | – | – | – | – | – | – | – | – | – | pEC50 [10]: 7.41; pEC50 [15]: 7.30 |
| CNC(=O)[C@@]12C[C@@H]1[C@@H](n1cnc3c(NCCc4ccccc4)nc(I)nc31)[C@H](O)[C@@H]2O | – | – | – | – | – | – | 8.35 | – | 8.77 | 39 | 6.57 | – | – | – | – | – | – | – | – | – | pKi [16]: 6.24 |
| CNC(=O)[C@@]12C[C@@H]1[C@@H](n1cnc3c(NCCc4ccc(OC)c(O)c4)nc(OCC(C)C)nc31)[C@H](O)[C@@H]2O | 6.51 | 4.78 | 101 | 9.15 | 22.5 | – | – | 6.23 | 7.75 | – | 6.50 | 100 | < 4.52 | < 4.52 | 64.5 | 94.6 | 6.60 | < 4.52 | 84.6 | 167 (≈ 317 µM) | bioavailability [25]: 4.34%; pIC50 [28]: 6.08; Stability [29]: 56.9% |
| CNC(=O)[C@@]12C[C@@H]1[C@@H](n1cnc3c(NCCc4ccc(OC)c(OC)c4)nc(C#Cc4ccc(Cl)s4)nc31)[C@H](O)[C@@H]2O | 2 | 5.44 | 43.9 | 6.72 | 11.5 | 0 | 8.06 | – | 8.66 | 16 | 5.15 | 100 | < 4.52 | 4.82 | 100 | 100 | 6.37 | 4.75 | 100 | 3.84 (≈ 6.3 µM) | Papp [4]: 0.44 10^-6 cm/s; bioavailability [30]: 1.88%; Ratio [31]: 46.6; pIC50 [28]: 6.11; Stability [29]: 100% |
